Legend:
[1] = biological target: T1, recombinant firefly luciferase (Photinus pyralis, UniProt P08659); test: Firefly luciferase activity assay; format: biochemical; details: 15 min at 37°C
T1 construct: purchased Sigma-Aldrich
Method: Recombinant firefly luciferase (Sigma-Aldrich, St. Louis, Missouri, United States) was diluted to 10^4 U/mg in 1× PBS (phosphate buffered saline) and subsequently incubated with NFA or the substances of interest for 15 min at 37°C. Afterwards, 50 µl per reaction mix was transferred into a white 96-well plate, to which 50 µl/well Dual-Glo® (Promega, Madison, Wisconsin, United States) was added and incubated for another 10 min at 37°C. Luminescence was analyzed with a plate reader.
Suppl. Figure 1: Fatty acids interfere with firefly luciferase making the luc-based assays not suitable for analysis of signaling pathways modulated by NFA. 10 4 units of firefly luciferase were incubated with 1 µM and 10 µM OA or NFA with different carbon chain length (A) and Michael acceptor position (B) for 15 min at 37°C. Firefly activity is presented as percentage of vehicle control (DMSO) mean + SD, n=5. Compared to vehicle control statistical significance was calculated by one-way ANOVA with Bonferroni post-test. P-values of **P ≦0.0021, **** P ≦0.0001 are considered significant. DMSO, dimethyl sulfoxide; 9NOA, 9-nitro oleic acid; NFA, nitro-fatty acids, OA, oleic acid. […]

[2] = system: Nrf-2; test: Nrf-2 induction in HCT-116 cells (Western blot and ELISA); format: cell-based, human; details: 10 µM, 4 h, HCT-116, Western blot and ELISA
Method: The Nrf-2 and NF-κB transcription factors in the nuclear extracts were detected using an Nrf-2 Transcription Assay Kit (Cayman Chemical, # 600590) and NF-κB (p65 and p50) Transcription Factor Assay Kit (Cayman Chemical, # 10007889 and # 10006912). Prior to assay performance, the nuclear extracts were generated using a Nuclear Extraction Kit (Cayman Chemical, # 10009277). The assay was performed according to the manufacturer’s instructions. For all kits, the nuclear extracts were incubated overnight at 4°C. Development was carried out for 15–20 min or until the wells turned medium to dark blue. Five minutes after the stop solution had been added, the absorbance was read at 450 nm using a plate reader.
HCT-116 and A549 cells were washed with 1× PBS, and cell extracts were generated using a Nuclear Extraction Kit (Cayman Chemical, #10009277) according to the manufacturer’s instructions, whereas whole-cell lysates were obtained using SDS lysis buffer (55.5 mM Tris-HCl pH 6.8, 2.2% SDS, 9% glycerol supplemented with protease (cOmplete® Protease Inhibitor Cocktail, Roche, Mannheim, Germany) and phosphatase (PhosStop® Easy Pack, Roche, Mannheim, Germany) inhibitors. Protein concentrations from the nuclear and cytosolic fractions were determined with a bicinchoninic acid (BCA) protein assay kit (Pierce™, Rockford, Illinois, United States). Cytoplasmic and nuclear extracts (100 µg each) and 30 µg whole-cell lysates were diluted in 5× Laemmli loading dye and denatured for 10 min at 95°C, loaded on a 10% SDS polyacrylamide gel, and separated by gel electrophoresis for 15 min at 80 V followed by 60 min at 120 V. The separated proteins were blotted onto a nitrocellulose membrane (Hybond-C Extra, Amersham Biosciences Ltd., UK) using the Mini Trans-Blot® module (Bio-Rad, Hercules, California, United States) for 90 min at 90 V. The membrane was blocked with Odyssey blocking buffer (Li-Cor Biosciences, Bad Homburg, Germany) or 5% milk powder in TBS-T (Tris Buffered Saline with 0.1% Tween) for 1 h at room temperature (RT). The membranes were incubated with the primary antibodies overnight at 4°C, and then with the secondary antibodies for 1 h at RT. The primary antibodies were diluted 1:1,000 and the secondary antibodies were diluted 1:10,000 to 1:20,000. […]
FIGURE 2 Effects of NFA on Nrf-2 expression in colorectal cancer cells. HCT-116 cells were treated with 10 µM NFA and tBHQ and/or MMF for 4 h, and Nrf-2 levels were analyzed by western blotting and ELISA. […] (B) Nrf-2 expression levels were evaluated with an ELISA after incubation with NFA with different carbon chain lengths and Michael acceptor positions. […]

[3] = system: sEH; test: Cell-based sEH activity assay in COS-7 cells; design: species or system Afrikan green monkey; details: 10 µM, 24 h
Method: sEH activity in the cells was analyzed using a Soluble Epoxide Hydrolase Cell-Based Assay Kit (Cayman Chemical, #600090). […] Following incubation, the cells were processed according to the manufacturer’s instructions. The assay uses an internal signal subtraction to minimize potential errors generated by sEH-independent product formation due esterase mediated hydrolysis. The fluorescence intensity of the samples was measured in a plate reader at excitation/emission wavelengths of 330/465 nm sEH activity was calculated by the 6-methoxy-2-naphthaldehyde standard curve.
Suppl. Figure 2: Effects of NFA on sEH activity in COS-7 cells. sEH activity in COS-7 cells treated with NFA (10 µM) differ in (A) chain length and (B) Michael acceptor position and […]
Cells were lysed, and hydrolase activity was measured by Epoxy Fluor
7 lysis presented as mean + SD, n=2-3. […] OA, […]
oleic acid, she, soluble epoxide hydrolase.
(1 picture or pasted object on this page, not shown here)

T1 sequence (P08659 whole entry): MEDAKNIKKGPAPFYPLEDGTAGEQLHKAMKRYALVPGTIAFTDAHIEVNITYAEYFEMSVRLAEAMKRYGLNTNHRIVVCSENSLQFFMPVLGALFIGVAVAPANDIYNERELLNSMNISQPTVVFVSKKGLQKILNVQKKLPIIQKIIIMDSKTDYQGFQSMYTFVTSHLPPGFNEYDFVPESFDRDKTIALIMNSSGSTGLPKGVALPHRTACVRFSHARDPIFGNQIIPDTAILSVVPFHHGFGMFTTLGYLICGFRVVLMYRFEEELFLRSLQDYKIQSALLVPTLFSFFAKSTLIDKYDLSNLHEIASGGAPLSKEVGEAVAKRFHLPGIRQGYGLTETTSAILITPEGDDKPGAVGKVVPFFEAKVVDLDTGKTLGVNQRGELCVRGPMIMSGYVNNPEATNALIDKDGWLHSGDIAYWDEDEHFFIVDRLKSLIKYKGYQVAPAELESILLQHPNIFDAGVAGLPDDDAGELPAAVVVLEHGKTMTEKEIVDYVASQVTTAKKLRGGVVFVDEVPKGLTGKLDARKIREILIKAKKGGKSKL

Row | Structure (SMILES) | inhibition at 1 µM ([1]; 1 µM) [%] | inhibition of recombinant firefly luciferase ([1]; 10 µM) | induction of Nrf-2 (protein levels / signaling) [2] | inhibition of sEH activity in COS-7 cells [3]
1 | CCCCCCCCC=C(CCCCCCCC(=O)O)[N+](=O)[O-] [18.9.9, 9-nitro-octadec-9-enoic acid] | > 50 | complete inhibition | strongest effects | –
2 | CCCCCCCC/C=C\CCCCCCCC(=O)O [OA, oleic acid, reference compound] | – | – | did not affect | strong suppressive effect

Reference: article PMC8637440, “Structural Modifications Yield Novel Insights Into the Intriguing Pharmacodynamic Potential of Anti-inflammatory Nitro-Fatty Acids” (Frontiers in Pharmacology, 2021)
